In article PMC7958344, “Development of Novel Inhibitors Targeting the D-Box of the DNA Binding Domain of Androgen Receptor” (International Journal of Molecular Sciences, 2021):
Like-named read-outs stand apart in the source and are kept apart here.

Tests used:
[1] = molecular target: T1, full-length AR (Homo sapiens, UniProt P10275, T878A); test: eGFP AR transcriptional assay in LNCaP cells; format: cell-based; conditions: for eGFP FL (12 μM) / IC50: LNCaP-eGFP; for eGFP FL (12 μM): Supplementary Table 1; for inhibition of AR-FL expression at 12 μM: result in words; for IC50: read-out: estimated IC50, AR-FL transcriptional activity (eGFP)
T1 construct: endogenous in cells; host or cells: LNCaP with AR2PB-eGFP reporter
T1 sequence (P10275 1-920 T878A): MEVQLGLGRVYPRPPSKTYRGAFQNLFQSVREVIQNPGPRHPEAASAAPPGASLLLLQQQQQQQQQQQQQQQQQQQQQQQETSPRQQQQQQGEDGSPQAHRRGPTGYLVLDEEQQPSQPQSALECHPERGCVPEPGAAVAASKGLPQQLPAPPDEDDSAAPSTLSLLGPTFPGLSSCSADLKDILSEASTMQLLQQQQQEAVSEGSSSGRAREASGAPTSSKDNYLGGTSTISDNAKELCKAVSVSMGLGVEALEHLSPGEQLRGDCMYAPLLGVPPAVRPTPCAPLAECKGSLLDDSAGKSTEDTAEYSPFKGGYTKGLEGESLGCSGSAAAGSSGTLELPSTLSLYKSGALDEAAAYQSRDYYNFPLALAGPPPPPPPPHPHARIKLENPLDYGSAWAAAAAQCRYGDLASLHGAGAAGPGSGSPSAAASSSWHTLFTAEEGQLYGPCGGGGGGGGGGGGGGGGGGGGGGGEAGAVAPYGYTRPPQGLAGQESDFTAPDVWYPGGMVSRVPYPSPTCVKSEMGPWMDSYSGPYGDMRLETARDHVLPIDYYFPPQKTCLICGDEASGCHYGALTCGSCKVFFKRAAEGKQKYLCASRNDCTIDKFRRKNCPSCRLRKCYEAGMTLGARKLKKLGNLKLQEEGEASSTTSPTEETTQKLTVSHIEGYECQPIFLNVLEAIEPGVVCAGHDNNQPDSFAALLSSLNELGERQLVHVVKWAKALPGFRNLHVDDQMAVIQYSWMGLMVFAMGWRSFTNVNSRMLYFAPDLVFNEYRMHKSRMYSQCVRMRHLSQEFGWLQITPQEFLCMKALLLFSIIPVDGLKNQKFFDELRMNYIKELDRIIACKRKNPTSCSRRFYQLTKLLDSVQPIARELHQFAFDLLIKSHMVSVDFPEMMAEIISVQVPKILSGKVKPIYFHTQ
Experimental: In addition, these compounds were also tested for their ability to inhibit full-length AR transcriptional activity in LNCaP cells using an enhanced green fluorescent protein (eGFP) AR transcriptional assay, where the expression of eGFP is under the direct control of an androgen-responsive probasin-derived promoter.
(§1) LNCaP cells incorporating an AR2PB-eGFP reporter construct (2 × probasin) are previously described. eGFP and secreted PSA assays were performed as described. The mammalian two-hybrid assay was performed in PC3 cells by co-transfection of 15 ng pA-AR or pB-AR plasmids, with 12.5 ng PG5-NLuc reporter. PC3_iV7_3TKNluc or PC3_iNluc cells were seeded in DMEM +5% CSS at 5000 cells/well for 24 h, followed by adding doxycycline/compounds (18 h) and luminescence measurement. LNCaP and 22rv1 cells were starved in RPMI + CSS (48 h) before cell viability tests using the same conditions as above, followed by 30 μL/well PrestoBlue™ Reagent (1 h) and fluorescence measurement (TECAN F200).

[2] = Metabolic stability in human microsomes; format: in vitro ADME
Description: We then tested the metabolic stability of these molecules using human microsomes. […] This could explain the lower potency of this compound in cell growth assays, as it is metabolized quickly in the media.

[3] = test system: prostate-specific antigen (PSA); test: Secreted PSA production in LNCaP cells; format: cell-based; conditions: Homo sapiens, read-out: IC50, secreted PSA levels
Experimental: To further validate compounds as AR inhibitors, we tested their activity by quantifying the effect on the production of endogenous prostate-specific antigen (PSA) in PCa cell lines. PSA is an AR-regulated serine protease and is widely used as a biomarker for PCa.
as §1

[4] = molecular target: T2, AR-LBD (Rattus norvegicus, UniProt P15207); test: Androgen displacement assay (Polar Screen Androgen Receptor Competitor Green Assay Kit, FluormoneAL Green); format: binding; conditions: for % Displacement (1 μM) / % Displacement (10 μM): Table 1
T2 construct: displace a fluorescent-tagged androgenic ligand (FluormoneAL Green) from the AR-LBD; purchased
T2 sequence (P15207 651-882 limits assumed): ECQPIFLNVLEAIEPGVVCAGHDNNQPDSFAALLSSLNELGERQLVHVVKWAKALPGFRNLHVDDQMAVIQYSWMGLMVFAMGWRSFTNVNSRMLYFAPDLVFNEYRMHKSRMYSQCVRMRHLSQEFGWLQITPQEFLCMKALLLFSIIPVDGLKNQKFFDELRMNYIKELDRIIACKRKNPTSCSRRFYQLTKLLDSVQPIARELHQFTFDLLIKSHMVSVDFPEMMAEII
Experimental: Androgen displacement was assessed with the Polar Screen Androgen Receptor Competitor Green Assay Kit as per the instructions of the manufacturer.

[5] = microsomal stability, Table 1, read-out: Half-Life
[6] = read-out: half-life in microsomes (T1/2)

Compound | eGFP FL (12 μM) [1] | inhibition of AR-FL expression at 12 μM [1] | IC50 [1] | half-life [2, 5] | half-life [2, 6] | IC50 [3] | % Displacement (1 μM) [4] | % Displacement (10 μM) [4] | hormone displacement at 50 μM ([4]; high concentrations (50 μM), result in words)
O=C(NCc1cccc2ccccc12)NCC(O)(c1cccs1)c1cccs1 [VPC-17160] | 76 | significant inhibition | 2 µM | 3 min | 3 min | 2 µM | 10% | 29% | –
CC(O)(CNC(=O)C=Cc1ccnc2ccccc12)c1ccsc1 (centres unmarked) [VPC-17281] | 100 | significant inhibition | 5 µM | 90 min | > 90 min | 6 µM | 0% | 0% | no significant hormone displacement
